Assay [1] has as its target T1, RORγ receptor (B-RORγ LBD / Bioin-SRC1) (Homo sapiens, UniProt P51449).
T1 construct: 40 nM B-RORγ LBD solution
T1 sequence (P51449 269-508 limits assumed): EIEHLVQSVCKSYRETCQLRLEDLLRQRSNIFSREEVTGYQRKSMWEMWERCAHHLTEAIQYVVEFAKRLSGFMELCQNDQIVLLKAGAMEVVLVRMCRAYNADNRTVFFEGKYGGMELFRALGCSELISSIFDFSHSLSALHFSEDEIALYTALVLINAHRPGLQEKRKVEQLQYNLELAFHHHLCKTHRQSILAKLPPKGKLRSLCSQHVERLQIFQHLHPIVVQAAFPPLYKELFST
T1 sequence (Q15788 676-700 partner limits assumed): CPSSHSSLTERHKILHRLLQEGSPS
Put plainly: Determination of agonistic activities on RORγ receptors in vitro (dual FRET). Conditions: average of at least two independent experiments. The assay is classed as biochemical. How it is done:
Determination of Agonistic Activities of Compounds on RORγ Receptors In Vitro The agonistic activities of compounds described herein on RORγ receptor were determined by dual fluorescence resonance energy transfer (dual FRET) experiments. The agonistic activity was expressed by half maximum effect concentration (EC50).
1) Preparation of RORγ Assay Buffer
100 mL of buffer solution was well mixed with […] DTT for use.
2) Preparation of Solutions of Compounds
3) Preparation of protein mixtures a) 40 nM B-RORγ LBD solution was mixed well with 20 nM SA-APC solution and incubated for 15 minutes at room temperature. Then the resulting mixture was further mixed well with 400 nM Biotin and incubated for another 10 minutes at room temperature. […]
b) 40 nM Bioin-SRC1 solution was mixed well with 10 nM SA-eu solution and was incubated for 15 minutes at room temperature. Then the resulting mixture was further mixed well with 200 nM Biotin and was incubated for another 10 minutes at room temperature. […]
d) A mixture (25 μL) of B-RORγ LBD/SA-APC and Bioin-SRC1/SA-eu together with a test compound was added to one of the wells of a 384-well plate, and then the plate was centrifuged for one minute at 1000 rpm, and incubated at room temperature for one hour. The data were read on an Envision microplate detector and EC50 values were calculated.

Assay [2] concerns Mouse lymphoma EL4 cells transfected with RORγt plasmid. Put plainly: Determination of the activation rate on mouse lymphoma EL4 (IL-17 generation). The following applies: compound at 2 μM, 24 hours, PMA/ionomycin stimulation 4 hours, flow cytometry, read-out: +act % (activation of IL-17 generated by EL4 cells). In kind it is cell-based. As to the method: Determination of the Activation Rate on Mouse Lymphoma EL4
Mouse lymphoma EL4 cells transfected with RORγt plasmid were cultured at 37° C. under an atmosphere with 5% CO2, with a test compound added simultaneously. After 24 hours, the generation efficiency of IL-17A was analyzed. Before collection of cells, PMA at 50 ng/mL and ionomycin at 500 ng/mL were added for stimulation for 4 hours. The proportion of IL-17 was detected by intracellular staining and flow cytometry. […] The activation rate of IL-17 generated by EL4 cells for the compound was measured at a concentration of 2 μM.

The test system of assay [3] is Mouse spleen CD4+T cells differentiated into Th17 cells. Nature of the assay: Mouse Th17 cell differentiation, half-maximal effect concentration. The assay is classed as cell-based. The following applies: 96 hours, proportion of IL-17 by intracellular staining and flow cytometry. As to the method:
Determination of the Half-Maximal Effect Concentration of Mouse Th17 Cell Differentiation
Experimental methods: Mouse spleen CD4^+T cells were separated and differentiated into Th17 cells. CD4^+T cells were cultured in the environment containing anti-CD3 (0.25 μg/mL), anti-CD28 (1 μg/mL), anti-IL4 (2 μg/mL), anti-IFN-γ (2 μg/mL), TGF-β (5 ng/mL), and IL6 (20 ng/mL), with a test compound added at the same time. After 96 hours, the differentiation efficiency of Th17 was analyzed. Before collection of cells, PMA at 50 ng/mL and ionomycin at 500 ng/mL were added for stimulation for 4 hours, and the proportion of IL-17 was detected by intracellular staining and flow cytometry. Meanwhile, we used Live/Dead Cell Dye (Invitrogen) staining method to analyze the cell survival rate and to judge whether the drug had toxicity to cells, and determined the half-maximal effect concentration EC50 of the compounds.
(Flow cytometry measures light scatter and fluorescence of single cells or particles in a stream.)

A word on the EC50: it is the midpoint of the concentration-response curve. Read a low EC50 as an effect from little substance. Molecule `CC(C)Cc1ccc(-c2c(Cl)cc(NC(=O)Cc3ccccc3C#N)cc2Cl)cc1C#N` [Example 11, 2-(2-Cyanophenyl)-N-(2,6-dichloro-3′-cyano-4′-isobutyl-[1,1′-biphenyl]-4-yl)acetamide] displayed an EC50 in assay [1] of 10 to 50 nM. Besides, the activation at 2 µM in assay [2] was less than 20%.
The like results for `CC(C)Cc1ccc(-c2c(Cl)cc(NC(=O)Cc3ccccn3)cc2Cl)cc1C#N` [Example 13, N-(2,6-Dichloro-3′-cyano-4′-isobutyl-[1,1′-biphenyl]-4-yl)-2-(pyridin-2-yl)acetamide] were, in that order, 10 to 50 nM and less than 20%.
Take `CCS(=O)(=O)c1ccc(CC(=O)Nc2cc(Cl)c(-c3ccc(CC(C)C)c(C#N)c3)c(Cl)c2)cc1` [Example 16, N-(2,6-Dichloro-3′-cyano-4′-isobutyl-[1,1′-biphenyl]-4-yl)-2-(4-(ethylsulfonyl)phenyl)acetamide]: the EC50 in assay [1] is 10 to 50 nM; in assay [3], less than 50 nM. For the same molecule, the activation at 2 µM in assay [2] is greater than 50%.
The like results for `CC(C)Cc1ccc(-c2c(Cl)cc(NC(=O)Cc3ccc(S(C)(=O)=O)cc3)cc2Cl)cc1C#N` [Example 17, N-(2,6-Dichloro-3′-cyano-4′-isobutyl-[1,1′-biphenyl]-4-yl)-2-(4-(methylsulfonyl)phenyl)acetamide] were, in that order, 10 to 50 nM, less than 50 nM and greater than 50%.
In assay [3], `CCS(=O)(=O)c1ccc(CC(=O)Nc2cc(Cl)c(-c3ccc(CC(C)C)c(C#N)c3)c(Cl)c2)nc1` [Example 19, N-(2,6-Dichloro-3′-cyano-4′-isobutyl-[1,1′-biphenyl]-4-yl)-2-(5-(ethylsulfonyl)pyridin-2-yl)acetamide] returned an EC50 of 50 to 150 nM. Besides, the activation at 2 µM in assay [2] lay in the range of 20 to 50%.
Regarding `CC(C)Cc1ccc(-c2c(Cl)cc(NC(=O)Cc3ccc(S(C)(=O)=O)cn3)cc2Cl)cc1C#N` [Example 20, N-(2,6-dichloro-3′-cyano-4′-isobutyl-[1,1′-biphenyl]-4-yl)-2-(5-(methylsulfonyl)pyridin-2-yl)acetamide], the EC50 in assay [1] was 10 to 50 nM; in assay [3], greater than 150 nM. Besides, the activation at 2 µM in assay [2] was greater than 50%.
For the molecule `CC(C)Cc1ccc(-c2c(Cl)cc(NC(=O)Cc3ccc(S(N)(=O)=O)cc3)cc2Cl)cc1C#N` [Example 21, N-(2,6-Dichloro-3′-cyano-4′-isobutyl-[1,1′-biphenyl]-4-yl)-2-(4-sulfamoylphenyl)acetamide], the EC50 in assay [1] is less than 10 nM; in assay [3] it was less than 50 nM. Also, the activation at 2 µM in assay [2] is 20 to 50%.
`CC(C)Cc1ccc(-c2c(Cl)cc(NC(=O)Cc3ccc(C(=O)O)cc3)cc2Cl)cc1C#N` [Example 24, 4-(2-((2,6-Dichloro-3′-cyano-4′-isobutyl-[1,1′-biphenyl]-4-yl)amino)-2-oxoethyl)benzoic acid] had an EC50 in assay [1] of less than 10 nM. The activation at 2 µM in assay [2] is less than 20%.
For `CCS(=O)(=O)c1ccc(CC(=O)Nc2cc(Cl)c(-c3ccc(CC(C)C)cc3)c(Cl)c2)cc1` [Example 26, N-(2,6-Dichloro-4′-isobutyl-[1,1′-biphenyl]-4-yl)-2-(4-(ethylsulfonyl)phenyl)acetamide], the EC50 in assay [1] was in the range of 10 to 50 nM. For the same molecule, the activation at 2 µM in assay [2] was less than 20%.
`CCS(=O)(=O)c1ccc(CC(=O)Nc2cc(Cl)c(-c3ccc(OC(C)C)c(C#N)c3)c(Cl)c2)cc1` [Example 32, N-(2,6-Dichloro-3′-cyano-4′-isopropoxy-[1,1′-biphenyl]-4-yl)-2-(4-(ethylsulfonyl)phenyl)acetamide] registered an EC50 in assay [3] of less than 50 nM.
In assay [1], `CCN(CC)Cc1ccc(-c2c(Cl)cc(NC(=O)Cc3ccc(S(C)(=O)=O)cc3)cc2Cl)cc1C#N` [Example 33, N-(2,6-Dichloro-3′-cyano-4′-((diethylamino)methyl)-[1,1′-biphenyl]-4-yl)-2-(4-(methylsulfonyl)phenyl)acetamide] came in with an EC50 of 10 to 50 nM. The activation at 2 µM in assay [2] lay within 20 to 50%.
As to `CN(C)Cc1ccc(-c2c(Cl)cc(NC(=O)Cc3ccc(S(C)(=O)=O)cc3)cc2Cl)cc1C#N` [Example 34, N-(2,6-Dichloro-3′-cyano-4′-((dimethylamino)methyl)-[1,1′-biphenyl]-4-yl)-2-(4-(methylsulfonyl)phenyl)acetamide], the EC50 in assay [1] was in the range of 10 to 50 nM. Further, in assay [2], the activation at 2 µM is greater than 50%.
As to `CCN(C)Cc1ccc(-c2c(Cl)cc(NC(=O)Cc3ccc(S(=O)(=O)CC)cc3)cc2Cl)cc1C#N` [Example 36, N-(2,6-Dichloro-3′-cyano-4′-((ethyl(methyl)amino)methyl)-[1,1′-biphenyl]-4-yl)-2-(4-(ethylsulfonyl)phenyl)acetamide], the results for the EC50 in assay [1] and in assay [3] were 10 to 50 nM and greater than 150 nM, respectively. In assay [2], the activation at 2 µM was greater than 50%.
`CCN(CC)Cc1ccc(-c2c(Cl)cc(NC(=O)Cc3ccc(S(=O)(=O)CC)cc3)cc2Cl)cc1C#N` [Example 37, N-(2,6-Dichloro-3′-cyano-4′-((diethylamino)methyl)-[1,1′-biphenyl]-4-yl)-2-(4-(ethylsulfonyl)phenyl)acetamide] had an EC50 in assay [1] of 10 to 50 nM. The activation at 2 µM in assay [2] lay within 20 to 50%.
In assay [3], `CCC(C)Cc1ccc(-c2c(Cl)cc(NC(=O)Cc3ccc(S(=O)(=O)CC)cc3)cc2Cl)cc1C#N` (centres unmarked) [Example 41, N-(2,6-Dichloro-3′-cyano-4′-(2-methylbutyl)-[1,1′-biphenyl]-4-yl)-2-(4-(ethylsulfonyl)phenyl)acetamide] gave an EC50 greater than 150 nM.
The same measure, in the same setting: the figure for `CCS(=O)(=O)c1ccc(CC(=O)Nc2cc(Cl)c(-c3ccc(CC4CCC4)c(C#N)c3)c(Cl)c2)cc1` [Example 43, (N-(2,6-Dichloro-3′-cyano-4′-(cyclobutylmethyl)-[1,1′-biphenyl]-4-yl)-2-(4-(ethylsulfonyl)phenyl)acetamide)] is 50 to 150 nM.
`CCS(=O)(=O)c1ccc(CNC(=O)c2cc(Cl)c(-c3ccc(CC(C)C)c(C#N)c3)c(Cl)c2)nc1` [Example 49, 2,6-Dichloro-3′-cyano-N-((5-(ethylsulfonyl)pyridin-2-yl)methyl)-4′-isobutyl-[1,1′-biphenyl]-4-carboxamide] yielded an EC50 in assay [1] of 50 to 100 nM. Besides, in assay [2], the activation at 2 µM is less than 20%.
For the molecule `CCS(=O)(=O)c1ccc(CNC(=O)Nc2cc(Cl)c(-c3ccc(CC(C)C)c(C#N)c3)c(Cl)c2)nc1` [Example 55, 1-(2,6-Dichloro-3′-cyano-4′-isobutyl-[1,1′-biphenyl]-4-yl)-3-((5-(ethylsulfonyl)pyridin-2-yl)methyl)urea], in assay [1], the EC50 was in the range of 10 to 50 nM. Besides, the activation at 2 µM in assay [2] was in the range of 20 to 50%.
The like results for `CCS(=O)(=O)c1ccc(CNC(=O)Nc2cc(Cl)c(-c3ccc(CN(C)C)c(C#N)c3)c(Cl)c2)cc1` [Example 58, 1-(2,6-Dichloro-3′-cyano-4′-((dimethylamino)methyl)-[1,1′-biphenyl]-4-yl)-3-(4-(ethylsulfonyl)benzyl)urea] were, in that order, 10 to 50 nM and 20 to 50%.
The like results for `CCS(=O)(=O)c1ccc(CCNc2cc(Cl)c(-c3ccc(CC(C)C)c(C#N)c3)c(Cl)c2)cc1` [Example 60, 2′,6′-Dichloro-4′-((4-(ethylsulfonyl)phenethyl)amino)-4-isobutyl-[1,1′-biphenyl]-3-carbonitrile] were, in that order, 10 to 50 nM and 20 to 50%.
In assay [1], `CCS(=O)(=O)c1ccc(CCNc2cc(Cl)c(-c3ccc(CN(C)C)c(C#N)c3)c(Cl)c2)cc1` [Example 62, 2′,6′-Dichloro-4-((dimethylamino)methyl)-4′((4-(ethylsulfonyl)phenethyl)amino)-[1,1′-biphenyl]-3-carbonitrile] registered an EC50 of less than 10 nM. The activation at 2 µM in assay [2] fell in the range of 20 to 50%.

These data come from US10844017B2, “Biaryl compound, preparation method and use thereof” (FUDAN UNIVERSITY, priority 2017, dated 2020).
